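Cells were grown in 96-well plates and exposed to each compound for 48 hours at five concentrations; endpoints were interpolated linearly between bracketing concentrations, or set to the highest concentration if not reached. The concentration for full growth arrest is given as TGI.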
Columns and labels:
Assay in all cases: NCI-60 cell line screen, 48 h
XF 498 CNS = tested on: XF 498 CNS
K-562 leukemia = tested on: K-562 leukemia
MOLT-4 leukemia = tested on: MOLT-4 leukemia
A549 NSCLC = tested on: A549 NSCLC
IGROV1 ovarian = tested on: IGROV1 ovarian
SN12C renal = tested on: SN12C renal
HOP-92 NSCLC = tested on: HOP-92 NSCLC
M14 melanoma = tested on: M14 melanoma
SK-MEL-5 melanoma = tested on: SK-MEL-5 melanoma
U251 CNS = tested on: U251 CNS
NCI-H23 lung = tested on: NCI-H23 lung
SNB-75 CNS = tested on: SNB-75 CNS
COLO 205 colon = tested on: COLO 205 colon
DLD-1 colon = tested on: DLD-1 colon
LXFL 529 NSCLC = tested on: LXFL 529 NSCLC
SK-MEL-28 melanoma = tested on: SK-MEL-28 melanoma
RXF 393 renal = tested on: RXF 393 renal
NCI-H226 lung = tested on: NCI-H226 lung
SW-620 colon = tested on: SW-620 colon
A498 renal = tested on: A498 renal
786-0 renal = tested on: 786-0 renal
HCC-2998 colon = tested on: HCC-2998 colon
NCI-H522 lung = tested on: NCI-H522 lung
MALME-3M melanoma = tested on: MALME-3M melanoma
ACHN renal = tested on: ACHN renal
HT29 colon = tested on: HT29 colon
LOX IMVI melanoma = tested on: LOX IMVI melanoma
SR leukemia = tested on: SR leukemia
EKVX NSCLC = tested on: EKVX NSCLC
OVCAR-5 ovarian = tested on: OVCAR-5 ovarian
M19-MEL melanoma = tested on: M19-MEL melanoma
DMS 273 small cell lung = tested on: DMS 273 small cell lung
UO-31 renal = tested on: UO-31 renal
SF-268 CNS = tested on: SF-268 CNS
UACC-62 melanoma = tested on: UACC-62 melanoma
KM12 colon = tested on: KM12 colon
OVCAR-8 ovarian = tested on: OVCAR-8 ovarian
SF-295 CNS = tested on: SF-295 CNS
CAKI-1 renal = tested on: CAKI-1 renal
HOP-18 NSCLC = tested on: HOP-18 NSCLC
SK-MEL-2 melanoma = tested on: SK-MEL-2 melanoma
NCI-H460 lung = tested on: NCI-H460 lung
UACC-257 melanoma = tested on: UACC-257 melanoma
TK-10 renal = tested on: TK-10 renal
SF-539 CNS = tested on: SF-539 CNS
HOP-62 NSCLC = tested on: HOP-62 NSCLC
OVCAR-3 ovarian = tested on: OVCAR-3 ovarian
OVCAR-4 ovarian = tested on: OVCAR-4 ovarian
CCRF-CEM leukemia = tested on: CCRF-CEM leukemia
DMS 114 small cell lung = tested on: DMS 114 small cell lung
SNB-19 CNS = tested on: SNB-19 CNS
HCT-116 colon = tested on: HCT-116 colon
RPMI-8226 leukemia = tested on: RPMI-8226 leukemia
SK-OV-3 ovarian = tested on: SK-OV-3 ovarian
HL-60(TB) leukemia = tested on: HL-60(TB) leukemia
KM20L2 colon = tested on: KM20L2 colon
HCT-15 colon = tested on: HCT-15 colon
SNB-78 CNS = tested on: SNB-78 CNS

[N-]=[N+]=NC1C2CC3C4CC5CC3[C@H](C2)C(C5)C41 (stereo partly drawn)
TGI (XF 498 CNS): > 100 µM
TGI (K-562 leukemia): > 100 µM
TGI (MOLT-4 leukemia): > 100 µM
TGI (A549 NSCLC): > 100 µM
TGI (IGROV1 ovarian): > 100 µM
TGI (SN12C renal): > 100 µM
TGI (HOP-92 NSCLC): > 100 µM
TGI (M14 melanoma): > 100 µM
TGI (SK-MEL-5 melanoma): > 100 µM
TGI (U251 CNS): > 100 µM
TGI (NCI-H23 lung): > 100 µM
TGI (SNB-75 CNS): > 100 µM
TGI (COLO 205 colon): > 100 µM
TGI (DLD-1 colon): > 100 µM
TGI (LXFL 529 NSCLC): > 100 µM
TGI (SK-MEL-28 melanoma): > 100 µM
TGI (RXF 393 renal): > 100 µM
TGI (NCI-H226 lung): > 100 µM
TGI (SW-620 colon): > 100 µM
TGI (A498 renal): > 100 µM
TGI (786-0 renal): > 100 µM
TGI (HCC-2998 colon): > 100 µM
TGI (NCI-H522 lung): > 100 µM
TGI (MALME-3M melanoma): > 100 µM
TGI (ACHN renal): > 100 µM
TGI (HT29 colon): > 100 µM
TGI (LOX IMVI melanoma): > 100 µM
TGI (SR leukemia): > 100 µM
TGI (EKVX NSCLC): > 100 µM
TGI (OVCAR-5 ovarian): > 100 µM
TGI (M19-MEL melanoma): > 100 µM
TGI (DMS 273 small cell lung): > 100 µM
TGI (UO-31 renal): > 100 µM
TGI (SF-268 CNS): > 100 µM
TGI (UACC-62 melanoma): > 100 µM
TGI (KM12 colon): > 100 µM
TGI (OVCAR-8 ovarian): > 100 µM
TGI (SF-295 CNS): > 100 µM
TGI (CAKI-1 renal): > 100 µM
TGI (HOP-18 NSCLC): > 100 µM
TGI (SK-MEL-2 melanoma): > 100 µM
TGI (NCI-H460 lung): > 100 µM
TGI (UACC-257 melanoma): > 100 µM
TGI (TK-10 renal): > 100 µM
TGI (SF-539 CNS): > 100 µM
TGI (HOP-62 NSCLC): > 100 µM
TGI (OVCAR-3 ovarian): > 100 µM
TGI (OVCAR-4 ovarian): > 100 µM
TGI (CCRF-CEM leukemia): > 100 µM
TGI (DMS 114 small cell lung): > 100 µM
TGI (SNB-19 CNS): > 100 µM
TGI (HCT-116 colon): > 100 µM
TGI (RPMI-8226 leukemia): > 100 µM
TGI (SK-OV-3 ovarian): > 100 µM

NC(=O)NN/C=C(/C=Nc1ccccc1)[N+](=O)[O-]
TGI (HL-60(TB) leukemia): > 100 µM
TGI (XF 498 CNS): > 100 µM
TGI (K-562 leukemia): > 100 µM
TGI (MOLT-4 leukemia): > 100 µM
TGI (A549 NSCLC): > 100 µM
TGI (IGROV1 ovarian): > 100 µM
TGI (SN12C renal): > 100 µM
TGI (HOP-92 NSCLC): > 100 µM
TGI (KM20L2 colon): > 100 µM
TGI (M14 melanoma): > 100 µM
TGI (SK-MEL-5 melanoma): > 100 µM
TGI (U251 CNS): > 100 µM
TGI (NCI-H23 lung): > 100 µM
TGI (COLO 205 colon): > 100 µM
TGI (DLD-1 colon): > 100 µM
TGI (LXFL 529 NSCLC): > 100 µM
TGI (HCT-15 colon): > 100 µM
TGI (SK-MEL-28 melanoma): > 100 µM
TGI (RXF 393 renal): > 100 µM
TGI (SW-620 colon): > 100 µM
TGI (786-0 renal): > 100 µM
TGI (HCC-2998 colon): > 100 µM
TGI (NCI-H522 lung): > 100 µM
TGI (ACHN renal): > 100 µM
TGI (HT29 colon): > 100 µM
TGI (LOX IMVI melanoma): > 100 µM
TGI (SR leukemia): > 100 µM
TGI (EKVX NSCLC): > 100 µM
TGI (M19-MEL melanoma): > 100 µM
TGI (DMS 273 small cell lung): > 100 µM
TGI (UO-31 renal): > 100 µM
TGI (SF-268 CNS): > 100 µM
TGI (UACC-62 melanoma): > 100 µM
TGI (OVCAR-8 ovarian): > 100 µM
TGI (SF-295 CNS): > 100 µM
TGI (HOP-18 NSCLC): > 100 µM
TGI (NCI-H460 lung): > 100 µM
TGI (UACC-257 melanoma): > 100 µM
TGI (TK-10 renal): > 100 µM
TGI (HOP-62 NSCLC): > 100 µM
TGI (OVCAR-3 ovarian): > 100 µM
TGI (OVCAR-4 ovarian): > 100 µM
TGI (CCRF-CEM leukemia): > 100 µM
TGI (DMS 114 small cell lung): > 100 µM
TGI (SNB-19 CNS): > 100 µM
TGI (HCT-116 colon): > 100 µM
TGI (RPMI-8226 leukemia): > 100 µM
TGI (SK-OV-3 ovarian): > 100 µM

CCOP1(=O)C=CC(Cl)=C(C)C1 (stereo not drawn)
TGI (HL-60(TB) leukemia): 15.3 µM
TGI (XF 498 CNS): 34.3 µM
TGI (K-562 leukemia): 20.4 µM
TGI (MOLT-4 leukemia): 19.9 µM
TGI (A549 NSCLC): > 100 µM
TGI (IGROV1 ovarian): 55.1 µM
TGI (SN12C renal): 16.3 µM
TGI (HOP-92 NSCLC): 34.3 µM
TGI (KM20L2 colon): 31.8 µM
TGI (M14 melanoma): 29 µM
TGI (SK-MEL-5 melanoma): 36.5 µM
TGI (U251 CNS): 65.3 µM
TGI (NCI-H23 lung): 18.1 µM
TGI (SNB-75 CNS): 19.9 µM
TGI (COLO 205 colon): 44.4 µM
TGI (SNB-78 CNS): 47.5 µM
TGI (DLD-1 colon): 25.4 µM
TGI (LXFL 529 NSCLC): 25.9 µM
TGI (HCT-15 colon): 30.1 µM
TGI (SK-MEL-28 melanoma): 30.3 µM
TGI (RXF 393 renal): 14.3 µM
TGI (NCI-H226 lung): > 100 µM
TGI (SW-620 colon): 30.4 µM
TGI (A498 renal): > 71.1 µM
TGI (786-0 renal): 30.6 µM
TGI (HCC-2998 colon): 29.6 µM
TGI (NCI-H522 lung): 17.3 µM
TGI (MALME-3M melanoma): 29 µM
TGI (ACHN renal): 24.8 µM
TGI (HT29 colon): 28.5 µM
TGI (LOX IMVI melanoma): 39 µM
TGI (EKVX NSCLC): > 56.8 µM
TGI (OVCAR-5 ovarian): 50.2 µM
TGI (M19-MEL melanoma): > 57.3 µM
TGI (UO-31 renal): > 71.5 µM
TGI (SF-268 CNS): 56.9 µM
TGI (UACC-62 melanoma): 32.2 µM
TGI (KM12 colon): 33.5 µM
TGI (OVCAR-8 ovarian): 71.6 µM
TGI (SF-295 CNS): > 100 µM
TGI (CAKI-1 renal): 23.7 µM
TGI (HOP-18 NSCLC): 31.2 µM
TGI (SK-MEL-2 melanoma): 27.5 µM
TGI (NCI-H460 lung): 74.3 µM
TGI (UACC-257 melanoma): 39.8 µM
TGI (TK-10 renal): 34.2 µM
TGI (SF-539 CNS): 43.6 µM
TGI (HOP-62 NSCLC): 70 µM
TGI (OVCAR-3 ovarian): 35 µM
TGI (OVCAR-4 ovarian): 30.7 µM
TGI (CCRF-CEM leukemia): 12 µM
TGI (DMS 114 small cell lung): 39.4 µM
TGI (SNB-19 CNS): > 100 µM
TGI (HCT-116 colon): 44.7 µM
TGI (RPMI-8226 leukemia): > 59.4 µM
TGI (SK-OV-3 ovarian): > 100 µM

— PubChem BioAssay (NCI)
